Laboratory results reported in patent publication US9487479B2, “Small molecule inhibitors of N-terminus activation of the androgen receptor” (The University of British Columbia, priority 2008, dated 2016).

Key:
[1] = target: T1, progesterone receptor (PR) (Homo sapiens, UniProt P06401); assay: PRE-luciferase reporter assay in LNCaP cells transfected with PRβ; format: cell-based; conditions: 5 μg/ml, progesterone 10 nM, 24 h
T1 construct: Cells were co-transfected with expression plasmids for full-length hGR and PRβ; expressed in transfected cells; host or cells: LNCaP cells
T1 sequence (P06401 1-933): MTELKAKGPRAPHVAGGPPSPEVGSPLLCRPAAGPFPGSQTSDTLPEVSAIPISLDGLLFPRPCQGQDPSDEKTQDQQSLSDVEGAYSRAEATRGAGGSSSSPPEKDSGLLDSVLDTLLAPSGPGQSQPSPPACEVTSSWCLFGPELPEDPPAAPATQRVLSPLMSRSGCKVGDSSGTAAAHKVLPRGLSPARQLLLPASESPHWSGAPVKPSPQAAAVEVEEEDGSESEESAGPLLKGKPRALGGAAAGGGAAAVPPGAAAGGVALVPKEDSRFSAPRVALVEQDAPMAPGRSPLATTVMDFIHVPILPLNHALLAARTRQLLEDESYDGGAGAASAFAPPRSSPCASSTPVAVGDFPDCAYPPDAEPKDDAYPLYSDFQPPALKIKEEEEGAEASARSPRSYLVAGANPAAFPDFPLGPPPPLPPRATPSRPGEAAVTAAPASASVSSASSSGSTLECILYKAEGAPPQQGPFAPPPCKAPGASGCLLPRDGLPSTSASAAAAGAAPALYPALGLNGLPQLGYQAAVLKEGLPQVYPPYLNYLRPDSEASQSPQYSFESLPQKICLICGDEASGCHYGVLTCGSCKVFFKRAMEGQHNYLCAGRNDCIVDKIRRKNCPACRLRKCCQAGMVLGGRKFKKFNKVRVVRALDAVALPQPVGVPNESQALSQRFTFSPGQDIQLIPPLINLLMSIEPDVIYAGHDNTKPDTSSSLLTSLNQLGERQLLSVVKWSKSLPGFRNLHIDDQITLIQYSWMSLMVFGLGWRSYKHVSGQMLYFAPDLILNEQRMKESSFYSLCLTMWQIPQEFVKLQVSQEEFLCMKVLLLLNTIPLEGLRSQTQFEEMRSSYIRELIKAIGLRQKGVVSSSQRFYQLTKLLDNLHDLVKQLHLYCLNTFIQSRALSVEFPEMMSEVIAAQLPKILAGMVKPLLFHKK
Description: White bars represent no steroid (ethanol control). Wherein glucocorticoid receptor (GR) and progesterone receptor (PR).
Sequence similarities of amino acids in the AR with related human steroid receptors (glucocorticoid receptor (GR) and progesterone receptor (PR)) are significant in some domains such as the DNA-binding-domain (DBD). Although the AR-NTD shares less than 15% homology with the PR and GR, these receptors do interact with some of the same proteins such as SRC-1 (steroid receptor coactivator-1). Therefore, reporter gene assays were used to determine if candidate compounds that block AR activity have any effect on GR and PR transcriptional activity. Cells were co-transfected with expression plasmids for full-length hGR and PRβ and the relative reporter (i.e., pGR-Luc or PRE-E1b-Luc reporters). Cells were then treated with ethanol vehicle, dexamethasone (GR), 4-pregnene-3,20 dione (progesterone) (PR) followed by measurement of luciferase activity.

[2] = test system: LNCaP xenografts; assay: LNCaP subcutaneous xenograft model in castrated NOD-SCID mice; format: in vivo; conditions: intratumoral 30 mg/kg every 3 days
Protocol: CB3.1 reduced the size of the tumors while DMSO-treated tumors continued to grow. Animals were castrated 7 days before 1st injection and tumor volume was set to 100%. Injections were made every 3 days at a dose of 30 mg/kg body weight every 3 days. B. Photograph is of a representative harvested LNCaP xenograft treated with CB3.1. The black bar represents 10 mm.
Six to eight-week old male athymic SCID mice were inoculated subcutaneously in the flank region via a 27-gauge needle with a 150 μl suspension of LNCaP or PC3 human prostate cancer cells (1×10^6 cells). The inoculations took place while the animal was under isofluorane anaesthesia. The tumor take rate is approximately 75%. Mice bearing tumors of 100 mm^3 were randomly assigned to treatment groups. Castration was performed as described below. Tumor volume (formula: L×W×H×0.5236) was measured in mice bearing LNCaP subcutaneous tumors that became palpable or visible and at least 40 mm^3. The animals were monitored daily and tumors were measured every 5 days.
Androgen withdrawal was completed by castration. Under isoflurane anaesthesia, a 5 mm vertical incision was used to gently withdraw the epididymal fat pad, to which the testis were attached, and to remove the testis from body. The cord connecting the testis to the blood supply was ligated with a suture, then cut. The cord was then returned to the abdominal cavity. Surgical suture was used to close the incision. To relieve pain, buprenorphine (0.05 mg/kg) was injected prior to surgery.
The subcutaneous xenograft model was used to test whether sintokamides that inhibit activation of the androgen receptor in vitro have any effect on these tumors. CB3.1 was tested in vivo using the LNCaP subcutaneous xenograft model. […] LNCaP human prostate cancer cells express endogenous androgen receptor (AR) and prostate-specific antigen (PSA), and progress to androgen independence in castrated hosts. LNCaP cells (10^6/ml) were implanted subcutaneously into NOD-SCID male mice that were at least 8 weeks in age. […]

[3] = test system: LNCaP cells; assay: Cytotoxicity: cell morphology of treated LNCaP cells; format: cell-based, human; conditions: LNCaP cells treated for 48 h, 10 μM
Description: From this extract, the pure active compound, Sintokamide A (CB3.1) was isolated and to ensure that the inhibitory effect of CB3.1 was not due to generally cytotoxicity, cell morphology of LNCaP cells was examined. […] Cells treated with R1881 are also shown to provide an indication of cell number and for comparison.

[4] = Animal body weight during the LNCaP xenograft experiment; format: in vivo, mice
Protocol: The subcutaneous xenograft model was used to test whether sintokamides that inhibit activation of the androgen receptor in vitro have any effect on these tumors. CB3.1 was tested in vivo using the LNCaP subcutaneous xenograft model. […] LNCaP human prostate cancer cells express endogenous androgen receptor (AR) and prostate-specific antigen (PSA), and progress to androgen independence in castrated hosts. LNCaP cells (10^6/ml) were implanted subcutaneously into NOD-SCID male mice that were at least 8 weeks in age. The cells were suspended in 75 μl of RPMI medium 1640 (5% FBS) with 75 μl of Matrigel and injected into the flank region of the host under anesthesia. LNCaP cells were implanted subcutaneously into NOD-SCID male mice and the animals were castrated when the tumors were approximately 100 mm^3 (mean=[…]; n=18) and randomized into two groups. One week after castration the animals were treated every 3 days with an intratumoral dose of 30 mg/kg body weight of CB3.1 or matching volume of vehicle (control, DMSO). […] Fifteen days after the first injection of CB3.1, the tumors were 111.81%±38.12 the tumor volume on the day of the 1st injection. While 15 days after injection of DMSO, the tumors were 180.27%±111.67 the tumor volume on the day of the 1st injection. Serum PSA provides an indication of prognosis. For animals receiving CB3.1, serum PSA was 98.47%±170.51 on day 15 after the 1st injection. […] Tumor volume and serum PSA values were consistent with CB3.1 reducing tumor burden and serum PSA compared to vehicle-treated animals.

## CCC(=O)N[C@H](C[C@H](C)C(Cl)(Cl)Cl)C(=O)N1C(=O)C=C(OC)[C@@H]1C[C@H](C)C(Cl)Cl [CB3.1, Sintokamide A]
[1]
  PRE-luciferase activity in response to ligand: did not inhibit
[2]; 15 days after first injection, castrated mice
  tumor volume relative to the tumor volume on the day of the 1st injection: 111.81%±38.12
[2]; day 15 after the 1st injection
  serum PSA: 98.47%±170.51
[2]; castrated mice
  effect on tumor volume: showed a reduction of tumor volume
[3]
  signs of toxicity (cell morphology): no obvious signs of toxicity
[4]; duration of the experiment, intratumoral 30 mg/kg every 3 days
  change in animal body weight: No change in animal body weight
[4]; finish of experiment, intratumoral 30 mg/kg every 3 days
  animal body weight, finish: 25.0±1.4 grams
[4]; start of experiment
  animal body weight, start: 24.6±1.1 grams
